Experimental findings from patent US6355633B1, “Aryl sulfonic acids and derivatives as FSH antagonists” (American Home Products Corporation, priority 1999, dated 2002) are described below.

Experiment [1] relates to FSH-induced changes in ovarian follicular maturation. Nature of the experiment: Immature Rat Test Procedure (FSH-induced organ wet weight). The experiment is classed as in vivo. Particulars: immature rats, twice daily for three days with half-maximal dose of hFSH; for IC50 (mg/Kg) ovaries: ovarian wet weight; for IC50 (mg/Kg) uterus: uterine wet weight. The protocol:
Immature Rat Test Procedure
In order to assess the ability of compounds to affect FSH-induced changes in ovarian follicular maturation in vivo, immature rats (18 days of age) are treated twice daily for three days with compound in the presence of a half-maximal dose of purified human FSH. Animals are treated via the i.p. or p.o. routes. On the fourth day following treatment, animals are euthanized and the ovaries, uterus and spleen (the spleen is a control tissue that should not respond to FHS stimulation) collected for wet weight determination. In each experiment animals treated with vehicle alone or FSH alone are used as negative and positive controls, respectively.

For experiment [2], the target named is T1, FSH receptor (Homo sapiens, UniProt P23945).
T1 sequence (P23945 18-695): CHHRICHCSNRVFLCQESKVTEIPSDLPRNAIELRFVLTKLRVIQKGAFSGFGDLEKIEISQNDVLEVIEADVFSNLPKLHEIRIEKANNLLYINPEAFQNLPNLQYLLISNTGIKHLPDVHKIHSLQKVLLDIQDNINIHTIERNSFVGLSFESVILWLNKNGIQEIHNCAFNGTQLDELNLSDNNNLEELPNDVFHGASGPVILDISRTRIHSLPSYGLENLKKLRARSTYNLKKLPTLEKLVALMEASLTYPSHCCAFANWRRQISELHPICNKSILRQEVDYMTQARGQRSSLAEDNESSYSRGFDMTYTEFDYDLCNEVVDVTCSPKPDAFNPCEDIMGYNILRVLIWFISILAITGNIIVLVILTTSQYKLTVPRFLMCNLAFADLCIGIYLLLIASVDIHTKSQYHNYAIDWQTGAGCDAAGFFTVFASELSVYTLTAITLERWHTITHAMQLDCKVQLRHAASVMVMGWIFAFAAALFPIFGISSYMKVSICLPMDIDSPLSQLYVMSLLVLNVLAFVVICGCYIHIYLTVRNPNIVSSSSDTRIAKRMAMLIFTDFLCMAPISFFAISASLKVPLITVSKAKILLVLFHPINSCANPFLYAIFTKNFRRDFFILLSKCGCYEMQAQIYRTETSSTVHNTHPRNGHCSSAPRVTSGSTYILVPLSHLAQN
The experiment in a line: FSH Receptor Radioligand Membrane Binding Standard Pharmacological Test Procedure. Also noted: expressed in transfected cells. Particulars: [125I]FSH binding to membranes of CHO cells stably transfected with the human FSH receptor. In short, it runs like this:
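Membranes from CHO cells stably expressing human FSH receptor; compounds pre-incubated 15 min at room temperature, then [125I]FSH added (diluted to 200 pM before addition) for 2 h at room temperature in pH 7.2 Tris buffer with protease inhibitors and BSA. Bound radioactivity after filtration counted by gamma counter; non-specific binding defined with unlabelled human FSH.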

Experiment [3] addresses T1, FSH receptor. The experiment in a line: In Vitro Bio-test Procedure of Agonists and Antagonists to the FSH Receptor (cAMP accumulation in CHO-3D2 cells). The class given is cell-based. Also noted: expressed in transfected cells; host or cells: CHO-3D2 cells. The protocol: In Vitro Bio-test Procedure of Agonists and Antagonists to the FSH Receptor
The compounds were subsequently diluted in sterile procedure medium (Optimem (Gibco/BRL, Grand Island, N.Y.)/0.1% BSA) prior to use in the bio-procedure.
Preparation of CHO-3D2 Cells; CHO-3D2 cells were plated into 96-well Nunc tissue culture plates at a density of 30,000 cells/well in DMEM/F12 medium (Gibco/BRL, Grand Island, N.Y.) supplemented with 5% Fetal Bovine Serum (Hyclone, Fetal Clone II), 2 mM L-glutamine and penicillin/streptomycin (100 U/mL). Cells were plated one day prior to performing the bio-procedure.
Procedure: On the day of procedure, the wells were washed two times with 100 ul/well of pre-warmed (37 deg C.) procedure medium. After aspirating the second wash, an additional 100 ul of procedure medium was added to each well and the cells pre-incubated for 30-45 minutes at 37 deg C. In a humidified incubator with 5%CO2/95% air. The cells were then challenged with varying dilutions of the test substance(s) in a 50 ul total incubation volume in procedure medium for 30 minutes at 37 deg C. in the humidified incubator. The challenge was terminated by the addition of 50 ul of 0.2 N HCl to each well. CAMP accumulation in the medium was measured by radioimmunoassay.
Test Groups: In the 96-well format, the plate is organized into 12 columns each containing 8 rows of wells. The plate was split in half to test a single compound in both agonist and antagonist mode on the same plate.
For agonist mode, compounds were tested using 5 different concentrations in a dose-response paradigm using one column as a control (challenge medium alone) in agonist mode.
The 96-well format allowed for the capability to test 4 columns of compound, using one of the remaining columns for negative control (challenge medium alone) and the other remaining column for ampositive control (ED20 of FSH alone).
The doses chosen to test each compound were extrapolated from the initial screening process (receptor binding data). Along with the test compounds, FSH was run in agonist mode using doses ranging from 0.1 ng/mL-1000 ng/mL as a postive control. Cytotoxicity of the compounds were screened by treating cells with the highest concentration of each compound used in the cAMP procedure for 30 minutes followed by washing of the cells 2 times with 100 ul PBS. The cells were then incubated for 5 min at 37 deg C. in the presence of 50 ug/mL Fluorescein diacetate and 20 ug/mL Propidium iodide in 100 ul PBS. The cells were washed two times with 100 ul PBS followed by examination of the cells under a fluorescence microscope using a 490 nm filter. Viable cells stained green throughout, while dead cells had red fluorescent nuclei.
Analysis of Results: cAMP accumulation was expressed as fmol/mL. […] Data were analyzed statistically by analysis of variance and significant differences between treatments and control determined by Dunnett's test. In antagonist mode, a Duncan's test was used.
Reference Compounds: Test compounds were compared to the effect of purified or recombinant human FSH.

In the case of `CC(C)OS(=O)(=O)c1cc(NC(=O)c2ccc(S(C)(=O)=O)c([N+](=O)[O-])c2)ccc1/C=C/c1ccc(NC(=O)c2ccc(S(C)(=O)=O)c([N+](=O)[O-])c2)cc1S(=O)(=O)OC(C)C` [Example 27m, 2,2′-[(E)-1,2-Ethenediyl]bis[5-[[(4-methylsulfonyl)-3-(nitro)-benzoyl]amino]benzenesulfonic Acid], Bis(1-methylethyl) Ester], in experiment [1] (po), the “IC50 (mg/Kg) ovaries” value is 8.4 mg/kg and the “IC50 (mg/Kg) uterus” value is 7.9 mg/kg.

On to `CSc1ccc(C(=O)Nc2ccc(/C=C/c3ccc(NC(=O)c4ccc(SC)c(S(=O)(=O)N5CCOCC5)c4)cc3S(=O)(=O)OC(C)C)c(S(=O)(=O)OC(C)C)c2)cc1S(=O)(=O)N1CCOCC1` [Example 27k, 2,2′-[(E)-1,2-Ethenediyl]bis[5-[[4-(methylthio)-3-(4-morpholinylsulfonyl)benzoyl]amino]benzenesulfonic Acid], Bis(1-methylethyl) Ester], for which, in experiment [1] (ip), the “IC50 (mg/Kg) ovaries” value amounted to 1.1 mg/kg and the “IC50 (mg/Kg) uterus” value came to 0.5 mg/kg. In addition, in experiment [1] (po), the “IC50 (mg/Kg) ovaries” value stood at 4.8 mg/kg and the “IC50 (mg/Kg) uterus” value came out at 1.9 mg/kg.

As to `NC(=O)CS(=O)(=O)c1ccc(C(=O)Nc2ccc(/C=C/c3ccc(NC(=O)c4ccc(S(=O)(=O)CC(N)=O)cc4)cc3S(=O)(=O)O)c(S(=O)(=O)O)c2)cc1` [Example 37b, 5-[[4-[(2-Amino-2-oxoethyl)sulfonyl]benzoyl]amino]-2-[(E)-2-[4-[[4-[(2-amino-2-oxoethyl)sulfonyl]benzoyl]amino]-2-sulfophenyl]ethenyl]-benzenesulfonic Acid], the IC50 was found to be 2.9 µM at FSH receptor [2] and 1.2 µM at FSH receptor [3].

For `CCS(=O)(=O)c1ccc(C(=O)Nc2ccc(/C=C/c3ccc(NC(=O)c4ccc(S(=O)(=O)CC)cc4)cc3S(=O)(=O)OC(C)C)c(S(=O)(=O)OC(C)C)c2)cc1` [Example 27z, 2,2′-[(E)-1,2-Ethenediyl]bis[5-[[4-(ethylsulfonyl)benzoyl]amino]benzenesulfonic acid], Bis(1-methylethyl) Ester], in experiment [1] (po), the “IC50 (mg/Kg) ovaries” value was greater than 10 mg/kg and the “IC50 (mg/Kg) uterus” value turned out to be 10 mg/kg.

In the case of `COc1ccc(C(=O)Nc2ccc(/C=C/c3ccc(NC(=O)c4ccc(OC)c(S(=O)(=O)N5CCCCC5)c4)cc3S(=O)(=O)O)c(S(=O)(=O)O)c2)cc1S(=O)(=O)N1CCCCC1` [Example 30h, 2,2′-[(E)-1,2-Ethenediyl]bis[5-[[4-methoxy-3-(1-piperidinylsulfonyl)benzoyl]amino]benzenesulfonic Acid]], the IC50 on FSH receptor [2] turned out to be 7.3 µM; at FSH receptor [3] it was 8.1 µM.

Regarding `COCCOc1ccc(C(=O)Nc2ccc(CCc3ccc(NC(=O)c4ccc(OCCOC)c(S(=O)(=O)N5CCOCC5)c4)cc3S(=O)(=O)O)c(S(=O)(=O)O)c2)cc1S(=O)(=O)N1CCOCC1` [Example 43f, 2,2′-(1,2-Ethanediyl)bis[5-[[4-(2-methoxyethoxy)-3-(4-morpholinylsulfony)benzoyl]amino]benzenesulfonc Acid]], the figures for the IC50 at FSH receptor [2] and on FSH receptor [3] were 5 µM and 6.4 µM, respectively.

With `COc1ccc(C(=O)Nc2ccc(CCc3ccc(NC(=O)c4ccc(OC)c(S(=O)(=O)N5CCCC5)c4)cc3S(=O)(=O)O)c(S(=O)(=O)O)c2)cc1S(=O)(=O)N1CCCC1` [Example 43g, 2,2′-(1,2-Ethanediyl)bis[5-[[4-methoxy-3-(1-pyrrolidinylsulfonyl)benzoyl]amino]benzenesulfonic Acid]], the IC50 stood at 7 µM on FSH receptor [2] and 12 µM on FSH receptor [3].

For the compound `CCN(CC)S(=O)(=O)c1cc(C(=O)Nc2ccc(/C=C/c3ccc(NC(=O)c4ccc(OC)c(S(=O)(=O)N(CC)CC)c4)cc3S(=O)(=O)O)c(S(=O)(=O)O)c2)ccc1OC` [Example 33c, 2,2′-[(E)-1,2-Ethenediyl]bis[5-[[3-[(diethylamino)sulfonyl]-4-methoxybenzoyl]amino]benzenesulfonic Acid]], the IC50 came to 6.2 µM at FSH receptor [2] and 4.5 µM on FSH receptor [3].

With `COc1ccc(C(=O)Nc2ccc(Sc3ccc(NC(=O)c4ccc(OC)c(S(=O)(=O)N5CCOCC5)c4)cc3S(=O)(=O)O)c(S(=O)(=O)O)c2)cc1S(=O)(=O)N1CCOCC1` [Example 33h, 2,2′-Thiobis[5-[[4-methoxy-3-(4-morpholinylsulfonyl)benzoyl]amino]benzenesulfonic Acid]], the IC50 on FSH receptor [2] was 23 µM; on FSH receptor [3] it was 67 µM.

For the compound `COCCOCCSc1ccc(C(=O)Nc2ccc(/C=C/c3ccc(NC(=O)c4ccc(SCCOCCOC)c(S(=O)(=O)N5CCOCC5)c4)cc3S(=O)(=O)O)c(S(=O)(=O)O)c2)cc1S(=O)(=O)N1CCOCC1` [Example 32o], the IC50 was 1.5 µM at FSH receptor [2] and 1 µM on FSH receptor [3].

With `O=C(Nc1ccc(CCc2ccc(NC(=O)c3cccc(S(=O)(=O)N4CCOCC4)c3)cc2S(=O)(=O)O)c(S(=O)(=O)O)c1)c1cccc(S(=O)(=O)N2CCOCC2)c1` [Example 43d], the results for the IC50 on FSH receptor [2] and at FSH receptor [3] were 12 µM and 13 µM, respectively.

As for `COc1ccc(C(=O)Nc2ccc(CCc3ccc(NC(=O)c4ccc(OC)c(S(=O)(=O)N5CCCCC5)c4)cc3S(=O)(=O)O)c(S(=O)(=O)O)c2)cc1S(=O)(=O)N1CCCCC1` [Example 43b], the values for the IC50 on FSH receptor [2] and at FSH receptor [3] were 17 µM and 28 µM, respectively.

Consider `COCCN(CCOC)S(=O)(=O)c1cc(C(=O)Nc2ccc(/C=C/c3ccc(NC(=O)c4ccc(OC)c(S(=O)(=O)N(CCOC)CCOC)c4)cc3S(=O)(=O)O)c(S(=O)(=O)O)c2)ccc1OC` [Example 30o, 2,2′-[(E)-1,2-Ethenediyl]bis[5-[[3-[[bis(2-methoxyethyl)amino]sulfonyl]-4-methoxybenzoyl]amino]benzenesulfonic Acid]], for which the IC50 at FSH receptor [2] was 2.4 µM; on FSH receptor [3], 6.2 µM.

Consider `CCSc1ccc(C(=O)Nc2ccc(/C=C/c3ccc(NC(=O)c4ccc(SCC)c(S(=O)(=O)N5CCOCC5)c4)cc3S(=O)(=O)O)c(S(=O)(=O)O)c2)cc1S(=O)(=O)N1CCOCC1` [Example 32i, 2,2′-[(E)-1,2-Ethenediyl]bis[5-[[4-(ethylthio)-3-(4-morpholinylsulfonyl)benzoyl]amino]benzenesulfonic Acid]], for which the figures for the IC50 at FSH receptor [2] and on FSH receptor [3] were 3.7 µM and 4.9 µM, respectively.
